What was measured:
[1] = system: Promega Mid-Range Molecular Weight Markers; experiment: Recovery of proteins separated by gel electrophoresis; settings: re-run 10% SDS-PAGE, 30% methanol, 4% acetic acid, 1 hour
Protocol: An 8% SDS-PAGE gel was prepared as described above and loaded with Promega Mid-Range Molecular Weight Markers at a concentration of 4 μg of each protein per lane. The gel was run at 160 V with 200 μl of octyl Coomassie (Promega Green 1) stock solution in the cathode buffer (125 ml).
After electrophoresis, the gel segments containing the 97, 66, 55, 43, and 40 kilodalton proteins were excised from four consecutive lanes, minced, and placed in individual 1.5 ml Eppendorf tubes containing 0.5 ml of 50 mM ammonium bicarbonate pH 7.8 containing 0.02% SDS (w/v). The tubes were then incubated at 50° C. for 14 hours.
After that time, the tubes were spun for 1 minute in a microfuge to pellet the minced acrylamide and 0.47 ml of the supernate was removed to new 1.5 ml tubes. Two of the four solutions from each of the eluted protein samples were dried in a Speed-Vac, the other pair was first ultrafiltered through a 5000 dalton cut-off Milligen centrifugal concentrator by centrifugation in a microfuge for 30 minutes. These concentrated solutions were then dried in a Speed Vac.
The dried samples were resuspended in 25 μl of 1× loading buffer and heated at 95° C. for 10 minutes. These samples were then loaded in two 15-well, 0.75 mm 10% SDS-PAGE gels made as above. The gels were then run at 160 V with 200 μl of Promega Green 1 stock solution in the cathode buffer (125 ml). […]

bovine serum albumin = experiment: Analysis of partial proteolytic products (Cleveland analysis)
Protocol: The comparison of proteins by analysis of the products of partial proteolysis using SDS-PAGE electrophoresis has been reported extensively in the literature. This analysis, termed Cleveland analysis, can provide important information on many different types of covalent changes that can occur on proteins.
An 8% SDS-PAGE gel was made as described in Example 5. A 5 μl sample of 1× loading buffer containing 4 μg of Bovine serum albumin previously heated at 95° C. for 5 minutes was placed in several of the wells and electrophoresis was performed as described in Example 5.
A second […] 16% SDS-PAGE gel was made as described in Example 5.
After electrophoresis, segments of the gel containing the BSA sample were excised by use of a razor blade and loaded into three of the sample wells of the second, 16 % gel. Then, 20 μl of 1× loading buffer containing 0.5 μg of Endoprotease Glu C, 0.5 μg of Endoprotease Lys C and 0.1 μg of Alkaline Protease, respectively, was added to individual wells containing the gel slices. Also, 5 μl of a solution of 4 μg of BSA in 1× loading buffer that was previously heated to 95° C. for 15 minutes was placed in a second set of three wells. To each of these three samples was added individual 20 μl solutions containing 0.5 μg of Endoprotease Glu C, 0.5 μg of Endoprotease Lys C, or 0.1 μg of Alkaline Protease, respectively. […]

[2] = system: Promega Mid Range Molecular Weight Markers; experiment: Rapid enhancement of the staining of proteins with low residual color in the gel
Protocol: In order to develop such a method, several 10% SDS-PAGE gels made as described in Example 5 were made and loaded with samples made as described therein with the following changes: the sample loading size was reduced to 5 μl; and the solutions were made to contain 1.0, 0.50, 0.25, and 0.125 μg of each protein band of Promega Mid Range Molecular Weight Markers in 5 μl of the sample. Each gel was loaded such that duplicate panels of samples containing the various concentrations of protein were present in 4 consecutive lanes. The gels were run as described above and the gel was cut between the duplicate sample panels. A gel segment containing one panel was placed in each of the following solutions: 30 ml of 2% glacial acetic acid (A); 30 ml of 2% glacial acetic acid in 10% methanol (B); 2% glacial acetic acid in 20% methanol (C); 2% glacial acetic acid in 30% methanol (D); 30 ml of water (E); 30 ml of 10% methanol (F); 30 ml of 20% methanol (G); and 30 ml of 30% methanol (H). The solutions were incubated with the gel segments for 10 minutes at room temperature and gently rotated at 40 rpm to prevent settling of the gel segments in the containers. […]
Protocols using other dyes that have been developed for the sensitive detection of protein sometimes employ the incubation of the gel in solutions containing the stain followed by incubation of the gel in solutions lacking the stain. In order to determine if such a protocol could be used to allow even lower levels of protein to be detected using Promega Green 1, the following study was performed. […]

CCCCCCCC(=O)N(c1ccc(OCC)cc1)c1ccc(C(=C2C=CC(=[N+](CC)Cc3cccc(S(=O)(=O)[O-])c3)C=C2)c2ccc(N(CC)Cc3cccc(S(=O)(=O)O)c3)cc2)cc1 [Promega Green 1]
detection of recovered proteins [1]: the expected protein bands could be seen in the lanes
visibility of partial proteolytic pattern (bovine serum albumin; 30% methanol, 4% acetic acid enhancement): readily apparent in a very short period of time
interference with Cleveland type protein analysis (bovine serum albumin; Endoprotease Glu C, Endoprotease Lys C, Alkaline Protease): does not interfere with Cleveland type protein analysis
amount of protein in a band that can be detected ([2]; methanol/acetic acid solutions A-H, 10 min then 60 min): less than 125 ng
lowest protein per band visible ([2]; post-incubation with dye 1:5000 and 1:10,000 in 30-50% methanol, then without dye): 62.5 ng
background staining ([2]; solution set H (30% methanol, then 2% acetic acid in 30% methanol)): very little background staining remaining

— patent publication US5705649A, “Protein staining compositions and methods” (Promega Corporation, priority 1995, dated 1998)
